According to patent US5561139A, “Substituted alicyclic-aliphatic amine-containing macrocyclic immunomodulators” (Abbott Laboratories, priority 1995, dated 1996):

test system: human mixed lymphocyte reaction (MLR); experiment: human mixed lymphocyte reaction (MLR) assay, immunosuppressant activity; type: cell-based; details: Table 1
Protocol: Example 68; In Vitro Assay of Biological Activity
The immunosuppressant activity of the compounds of the present invention was determined using the human mixed lymphocyte reaction (MLR) assay described by Kino, T. et al. in Transplantation Proceedings XIX(5);36-39, Suppl. 6 (1987), incorporated herein by reference.

SMILES | IC50
CC[C@@H]1/C=C(\C)C[C@H](C)C[C@H](OC)[C@H]2O[C@@](O)(C(=O)C(=O)N3CCCC[C@H]3C(=O)O[C@H](/C(C)=C/[C@@H]3CC[C@H](NCCN4CCOCC4)[C@H](OC)C3)[C@H](C)[C@@H](O)CC1=O)[C@H](C)C[C@@H]2OC [Example 5] | < 1000 nM
CC[C@@H]1/C=C(\C)C[C@H](C)C[C@H](OC)[C@H]2O[C@@](O)(C(=O)C(=O)N3CCCC[C@H]3C(=O)O[C@H](/C(C)=C/[C@@H]3CC[C@H](NC4CCN(Cc5ccccc5)CC4)[C@H](OC)C3)[C@H](C)[C@@H](O)CC1=O)[C@H](C)C[C@@H]2OC [Example 8] | < 1000 nM
CC[C@@H]1/C=C(\C)C[C@H](C)C[C@H](OC)[C@H]2O[C@@](O)(C(=O)C(=O)N3CCCC[C@H]3C(=O)O[C@H](/C(C)=C/[C@@H]3CC[C@H](NCCCN4CCCCC4)[C@H](OC)C3)[C@H](C)[C@@H](O)CC1=O)[C@H](C)C[C@@H]2OC [Example 9] | < 1000 nM
CC[C@@H]1/C=C(\C)C[C@H](C)C[C@H](OC)[C@H]2O[C@@](O)(C(=O)C(=O)N3CCCC[C@H]3C(=O)O[C@H](/C(C)=C/[C@@H]3CC[C@H](NCCCN4CCN(C)CC4)[C@H](OC)C3)[C@H](C)[C@@H](O)CC1=O)[C@H](C)C[C@@H]2OC [Example 12] | < 1000 nM
CC[C@@H]1/C=C(\C)C[C@H](C)C[C@H](OC)[C@H]2O[C@@](O)(C(=O)C(=O)N3CCCC[C@H]3C(=O)O[C@H](/C(C)=C/[C@@H]3CC[C@H](NCCCN4CCOCC4)[C@H](OC)C3)[C@H](C)[C@@H](O)CC1=O)[C@H](C)C[C@@H]2OC [Example 17] | < 1000 nM
CC[C@@H]1/C=C(\C)C[C@H](C)C[C@H](OC)[C@H]2O[C@@](O)(C(=O)C(=O)N3CCCC[C@H]3C(=O)O[C@H](/C(C)=C/[C@@H]3CC[C@H](NCCN4CCNCC4)[C@H](OC)C3)[C@H](C)[C@@H](O)CC1=O)[C@H](C)C[C@@H]2OC [Example 18] | < 1000 nM
CC[C@@H]1/C=C(\C)C[C@H](C)C[C@H](OC)[C@H]2O[C@@](O)(C(=O)C(=O)N3CCCC[C@H]3C(=O)O[C@H](/C(C)=C/[C@@H]3CC[C@H](NCCN4CCCC4)[C@H](OC)C3)[C@H](C)[C@@H](O)CC1=O)[C@H](C)C[C@@H]2OC [Example 19] | < 1000 nM
CC[C@@H]1/C=C(\C)C[C@H](C)C[C@H](OC)[C@H]2O[C@@](O)(C(=O)C(=O)N3CCCC[C@H]3C(=O)O[C@H](/C(C)=C/[C@@H]3CC[C@H](N(CCO)CCN4CCOCC4)[C@H](OC)C3)[C@H](C)[C@@H](O)CC1=O)[C@H](C)C[C@@H]2OC [Example 30] | < 1000 nM
CC[C@@H]1/C=C(\C)C[C@H](C)C[C@H](OC)[C@H]2O[C@@](O)(C(=O)C(=O)N3CCCC[C@H]3C(=O)O[C@H](/C(C)=C/[C@@H]3CC[C@@H](NCCCN4CCCCC4)[C@H](OC)C3)[C@H](C)[C@@H](O)CC1=O)[C@H](C)C[C@@H]2OC [Example 47] | < 1000 nM
